One assay concerns the target T1, human TDO2 (Homo sapiens, UniProt P48775).
T1 construct: SW48 cells, which express a high level of endogenous TDO2; endogenous in cells; host or cells: SW48 cells (ATCC CCL-231)
Description: TDO2 cellular activity assay (SW48 cells, NFK + KYN in supernatant by LCMS). Format: cell-based. Conditions: 24 h, 200 µM Trp. How it is done:
(§1) The inhibitor compound 1 (Cpd-1) (IUPAC name ethyl 9-(3-(2-propylphenyl)-1-(1-phenylethyl)ureido)-2-methoxy-4-oxo-6,7,8,9-tetrahydro-4H-pyrido[1,2-a]pyrimidine-3-carboxylate) was identified as a hit in a high throughput screening campaign of a diverse set of 244,625 compounds in a human TDO2 cellular assay utilizing SW48 cells, which express a high level of endogenous TDO2. TDO2 activity was assessed by measuring the accumulation of the TDO2 product NFK and downstream product KYN in the supernatant. The potent inhibitor compound 2 (Cpd-2) (IUPAC name ethyl 9-(3-(2-isopropylphenyl)-1-((S)-1-phenylethyl)ureido)-2-methoxy-4-oxo-6,7,8,9-tetrahydro-4H-pyrido[1,2-a]pyrimidine-3-carboxylate) was identified during initial structure activity relationship studies of Cpd-1 analogs.
SW48 cells (source: American Type Culture Collection (ATCC), CCL-231) were used to measure the TDO2 inhibitory activity of compounds and were routinely maintained in DMEM high glucose/GlutaMAX^TM/pyruvate (Gibco, 10569010) 90% (v/v), FCS (Gibco, 10500, heat inactivated)10% (v/v), Penicillin/streptomycin (Gibco, 15140) 1% (v/v). […]
The 384 deep well plate containing 3 µl supernatant and 25 µl H2O per well were further processed for LCMS. […] NFK and kynurenine were quantified by LCMS, normalized to the internal standard Trp-(indole-d5) and the sum was calculated. […]

A further assay deals with SW48 cells. The experiment in a line: SW48 cell viability assay (CellTiter-Glo). Particulars: Homo sapiens. Format: cell-based. How it is done: as §1
As inhibition of NFK and KYN production can simply be an effect of cytotoxicity, a viability assay (CellTiter-Glo 2.0 Luminescent Cell Viability Assay, Promega Catalog # G9243) was performed in parallel. CellTiter-Glo reagent was added (25 µl/well) to SW48 cell plates, incubated for 15 min at room temperature in the dark and luminescence was measured with the EnVision Multilabel Reader from Perkin Elmer according to the manufacturer’s instructions. […] For each compound concentration the percentage of activity compared to 0% and 100% effect was calculated as average ± STDEV (each concentration measured in duplicate). […]

Assay [1] addresses T2, recombinant human TDO2 (holo-TDO2) (Homo sapiens, UniProt P48775).
T2 construct: a construct encoding amino acids 19–406 of human TDO2 with an N-terminal six histidine tag; PreScission protease cleavage site (linker) (N); made in house; host or cells: E. coli BL21(DE3)
The experiment in a line: Holo-TDO2 enzymatic assay. It is filed as biochemical. The method, then: The IC50 curve is shown in supplementary Fig. S1 online. We speculate that the observed IC50 shift may be due to the kinetics of heme dissociation from holo-TDO2 and/or the absence of alternative heme binding proteins in the assay system. The structurally similar Cpd-2 was not tested in the enzymatic assay.
For the enzymatic assay, recombinant human TDO2 comprising amino acids […] with a N-terminal hexahistidine tag, expressed in Escherichia coli and purified to homogeneity, was incubated in assay buffer consisting of 75 mM phosphate buffer at pH 7.0 supplemented with 100 µM ascorbic acid, 50 U/ml catalase, 0.01% bovine serum albumin (BSA), and 0.01% Tween 20 (protocol modified from[45]).

T1 sequence (P48775 whole entry): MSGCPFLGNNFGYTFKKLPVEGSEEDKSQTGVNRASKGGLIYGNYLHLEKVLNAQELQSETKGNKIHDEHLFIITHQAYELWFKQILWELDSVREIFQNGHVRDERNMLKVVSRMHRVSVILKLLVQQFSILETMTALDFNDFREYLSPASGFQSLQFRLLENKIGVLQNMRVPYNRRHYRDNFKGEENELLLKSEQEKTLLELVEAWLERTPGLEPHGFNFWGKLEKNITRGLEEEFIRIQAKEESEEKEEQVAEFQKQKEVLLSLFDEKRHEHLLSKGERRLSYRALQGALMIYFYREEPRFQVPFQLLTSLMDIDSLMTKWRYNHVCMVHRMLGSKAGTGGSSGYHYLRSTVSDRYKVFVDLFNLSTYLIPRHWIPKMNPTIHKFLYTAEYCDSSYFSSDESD
T2 sequence (P48775 19-406): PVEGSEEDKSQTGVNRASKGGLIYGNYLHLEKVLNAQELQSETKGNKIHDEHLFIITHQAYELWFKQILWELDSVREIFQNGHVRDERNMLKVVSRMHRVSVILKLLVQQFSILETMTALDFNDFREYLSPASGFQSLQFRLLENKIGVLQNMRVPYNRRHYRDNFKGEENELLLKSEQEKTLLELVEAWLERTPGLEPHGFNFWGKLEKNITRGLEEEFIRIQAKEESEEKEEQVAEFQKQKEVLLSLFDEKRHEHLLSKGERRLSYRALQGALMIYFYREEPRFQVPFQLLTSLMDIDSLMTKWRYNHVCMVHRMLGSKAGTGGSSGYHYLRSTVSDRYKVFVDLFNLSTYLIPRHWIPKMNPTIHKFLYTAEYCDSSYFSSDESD

Turning to `CCOC(=O)c1c(OC)nc2n(c1=O)CCCC2N(C(=O)Nc1ccccc1C(C)C)[C@@H](C)c1ccccc1` (mixture of isomers) [Cpd-2, ethyl 9-(3-(2-isopropylphenyl)-1-((S)-1-phenylethyl)ureido)-2-methoxy-4-oxo-6,7,8,9-tetrahydro-4H-pyrido[1,2-a]pyrimidine-3-carboxylate], the IC50 at human TDO2 was 0.0148 µM; with SW48 cells, greater than 10 µM.

Regarding `CCCc1ccccc1NC(=O)N(C(C)c1ccccc1)C1CCCn2c1nc(OC)c(C(=O)OCC)c2=O` (stereo not drawn) [Cpd-1, ethyl 9-(3-(2-propylphenyl)-1-(1-phenylethyl)ureido)-2-methoxy-4-oxo-6,7,8,9-tetrahydro-4H-pyrido[1,2-a]pyrimidine-3-carboxylate], the 50% inhibitory concentration (IC50) at human TDO2 is 0.327 µM; with SW48 cells, greater than 10 µM; in assay [1] (30 min assay at room temperature after 30 min pre-incubation with holo-TDO2, read-out: enzymatic assay IC50 (holo form of TDO2)) it was 17.4 µM. Besides, the “fold less potent in enzymatic assay than in the cellular assay” value in assay [1] (enzymatic IC50 vs TDO2 cellular IC50) came to 53 fold.

Broadly, the IC50 is the point on the concentration scale where inhibition reaches its midpoint.
